The source made the active and inactive calls. The rule behind the calls is not given here.
Legend:
MGC-803 [1] = assay: Cell cycle arrest in human MGC803 cells assessed as accumulation at G0/G1 phase at 1.5 ug/ml after 48 hrs by propidium iodide staining-based flow cytometric method (reference value: 52.5 +/- 3.71%); assay type: functional
ECa-109 cell line = assay: Antiproliferative activity against human ECA109 cells after 48 hrs by MTT assay; assay type: functional, cell-based; details: ECa-109, 48 h
SMMC-7721 = assay: Antiproliferative activity against human SMMC7721 cells after 48 hrs by MTT assay; assay type: functional, cell-based; details: SMMC-7721, 48 h
PC-3 = assay: Antiproliferative activity against human PC3 cells after 48 hrs by MTT assay; assay type: functional, cell-based; details: PC-3, 48 h
MGC-803 [2] = assay: Antiproliferative activity against human MGC803 cells after 48 hrs by MTT assay; assay type: functional, cell-based; details: MGC-803, 48 h
MGC-803 [3] = assay: Antiproliferative activity against human MGC803 cells at 16 to 32 ug/ml after 48 hrs by MTT assay relative to control; assay type: functional
MGC-803 [4] = assay: Induction of reactive oxygen species formation in human MGC803 cells at 3 ug/ml after 5 hrs by DCFH-DA staining-based flow cytometry (reference value: 7.1%); assay type: functional
MGC-803 [5] = assay: Antiproliferative activity against human MGC803 cells at 8 to 16 ug/ml after 48 hrs in presence of N-acetyl cysteine by MTT assay; assay type: functional, cell-based
MGC-803 [6] = assay: Disruption of mitochondrial membrane potential in human MGC803 cells at 1.5 to 3 ug/ml after 24 hrs by JC1 staining-based fluorescence microscopic method; assay type: functional, cell-based
MGC-803 [7] = assay: Disruption of mitochondrial membrane potential in human MGC803 cells at 1.5 to 3 ug/ml after 24 hrs in presence of N-acetyl cysteine by JC1 staining-based fluorescence microscopic method; assay type: functional, cell-based
MGC-803 [8] = assay: Induction of apoptosis in human MGC803 cells assessed as upregulation of cleaved caspase-9 levels after 48 hrs by Western blot method; assay type: functional, cell-based
MGC-803 [9] = assay: Induction of apoptosis in human MGC803 cells assessed as early apoptotic cells at 1.5 ug/ml by annexin V-FITC/propidium iodide staining-based flow cytometric method (reference value: 1.3%); assay type: functional
MGC-803 [10] = assay: Induction of apoptosis in human MGC803 cells assessed as late apoptotic cells at 1.5 ug/ml by annexin V-FITC/propidium iodide staining-based flow cytometric method (reference value: 0.1%); assay type: functional
MGC-803 [11] = assay: Induction of apoptosis in human MGC803 cells assessed as viable cells at 1.5 ug/ml by annexin V-FITC/propidium iodide staining-based flow cytometric method (reference value: 97.6%); assay type: functional; details: read-out: Activity
MGC-803 [12] = assay: Induction of apoptosis in human MGC803 cells assessed as early apoptotic cells at 3 ug/ml by annexin V-FITC/propidium iodide staining-based flow cytometric method (reference value: 1.3%); assay type: functional
MGC-803 [13] = assay: Induction of apoptosis in human MGC803 cells assessed as late apoptotic cells at 3 ug/ml by annexin V-FITC/propidium iodide staining-based flow cytometric method (reference value: 0.1%); assay type: functional
MGC-803 [14] = assay: Induction of apoptosis in human MGC803 cells assessed as necrotic cells at 3 ug/ml by annexin V-FITC/propidium iodide staining-based flow cytometric method (reference value: 1%); assay type: functional
MGC-803 [15] = assay: Induction of apoptosis in human MGC803 cells assessed as viable cells at 3 ug/ml by annexin V-FITC/propidium iodide staining-based flow cytometric method (reference value: 97.6%); assay type: functional; details: read-out: Activity
MGC-803 [16] = assay: Induction of apoptosis in human MGC803 cells assessed as late apoptotic cells at 1.5 ug/ml in presence of N-acetyl cysteine by annexin V-FITC/propidium iodide staining-based flow cytometric method (reference value: 0.1%); assay type: functional
MGC-803 [17] = assay: Induction of apoptosis in human MGC803 cells assessed as viable cells at 1.5 ug/ml in presence of N-acetyl cysteine by annexin V-FITC/propidium iodide staining-based flow cytometric method (reference value: 97.6%); assay type: functional; details: read-out: Activity
MGC-803 [18] = assay: Induction of apoptosis in human MGC803 cells assessed as early apoptotic cells at 3 ug/ml in presence of N-acetyl cysteine by annexin V-FITC/propidium iodide staining-based flow cytometric method (reference value: 1.3%); assay type: functional
MGC-803 [19] = assay: Induction of apoptosis in human MGC803 cells assessed as late apoptotic cells at 3 ug/ml in presence of N-acetyl cysteine by annexin V-FITC/propidium iodide staining-based flow cytometric method (reference value: 0.1%); assay type: functional
MGC-803 [20] = assay: Induction of apoptosis in human MGC803 cells assessed as necrotic cells at 3 ug/ml in presence of N-acetyl cysteine by annexin V-FITC/propidium iodide staining-based flow cytometric method (reference value: 1%); assay type: functional
MGC-803 [21] = assay: Induction of apoptosis in human MGC803 cells assessed as decrease in cell number after 24 hrs by inverted microscopic method; assay type: functional, cell-based
MGC-803 [22] = assay: Induction of apoptosis in human MGC803 cells assessed as increase in cell debris after 24 hrs by inverted microscopic method; assay type: functional, cell-based
MGC-803 [23] = assay: Induction of apoptosis in human MGC803 cells assessed as increase in apoptotic bodies formation at 1.5 to 6 ug/ml after 24 hrs by Hoechst 33258 staining-based fluorescence microscopic method; assay type: functional, cell-based
MGC-803 [24] = assay: Cell cycle arrest in human MGC803 cells assessed as accumulation at G0/G1 phase at 3 ug/ml after 48 hrs by propidium iodide staining-based flow cytometric method (reference value: 52.5 +/- 3.71%); assay type: functional
MGC-803 [25] = assay: Cell cycle arrest in human MGC803 cells assessed as accumulation at S phase at 3 ug/ml after 48 hrs by propidium iodide staining-based flow cytometric method (reference value: 32.5 +/- 2.25%); assay type: functional
MGC-803 [26] = assay: Cell cycle arrest in human MGC803 cells assessed as accumulation at S phase at 1.5 ug/ml after 48 hrs in presence of N-acetyl cysteine by propidium iodide staining-based flow cytometric method (reference value: 32.5 +/- 2.25%); assay type: functional
MGC-803 [27] = assay: Cell cycle arrest in human MGC803 cells assessed as accumulation at G2/M phase at 3 ug/ml after 48 hrs by propidium iodide staining-based flow cytometric method (reference value: 17.2 +/- 1.35%); assay type: functional
MGC-803 [28] = assay: Cell cycle arrest in human MGC803 cells assessed as accumulation at G2/M phase at 1.5 ug/ml after 48 hrs in presence of N-acetyl cysteine by propidium iodide staining-based flow cytometric method (reference value: 17.2 +/- 1.35%); assay type: functional
MGC-803 [29] = assay: Cell cycle arrest in human MGC803 cells assessed as accumulation at G2/M phase at 3 ug/ml after 48 hrs in presence of N-acetyl cysteine by propidium iodide staining-based flow cytometric method (reference value: 17.2 +/- 1.35%); assay type: functional
MGC-803 [30] = assay: Induction of apoptosis in human MGC803 cells assessed as downregulation of survivin levels at 1.5 to 6 ug/ml after 48 hrs by Western blot method; assay type: functional, cell-based
MGC-803 [31] = assay: Induction of apoptosis in human MGC803 cells assessed as decrease in ratio of Bcl-2/Bax at 1.5 to 6 ug/ml after 48 hrs by Western blot method; assay type: functional, cell-based
MGC-803 [32] = assay: Cell cycle arrest in human MGC803 cells assessed as accumulation at G2/M phase after 48 hrs by propidium iodide staining-based flow cytometric method; assay type: functional

IC50 (SMMC-7721): 4.44 µM
IC50 (PC-3): 4.02 µM
IC50 (MGC-803 [2]): 2530 nM
Structure (SMILES): C=C1C(=O)[C@]23[C@H](O)[C@H]1C[C@H](O)[C@H]2[C@]12CCCC(C)(C)[C@H]1C[C@H]3O[C@@H]2OCCc1cn(Cc2ccc(Cl)cc2)nn1
Activity (MGC-803 [1]): 46.3%
IC50 (ECa-109 cell line): 2700 nM
inhibition (INH) (MGC-803 [3]): 90%
Activity (MGC-803 [4]): 24.8%
Activity (MGC-803 [5]): inactive
Activity (MGC-803 [6]): Active
Activity (MGC-803 [7]): inactive
Activity (MGC-803 [8]): Dose-dependent effect
Activity (MGC-803 [9]): 7.8%
Activity (MGC-803 [10]): 0.3%
viability at 1.5 µg/mL (MGC-803 [11]): 91%
Activity (MGC-803 [12]): 60.3%
Activity (MGC-803 [13]): 1.1%
Activity (MGC-803 [14]): 1.3%
viability at 3 µg/mL (MGC-803 [15]): 37.4%
Activity (MGC-803 [16]): 0.1%
viability at 1.5 µg/mL (MGC-803 [17]): 95%
Activity (MGC-803 [18]): 4.6%
Activity (MGC-803 [19]): 0%
Activity (MGC-803 [20]): 0.6%
Activity (MGC-803 [21]): Dose-dependent effect
Activity (MGC-803 [22]): Dose-dependent effect
Activity (MGC-803 [23]): Active
Activity (MGC-803 [24]): 30.5%
Activity (MGC-803 [25]): 29.6%
Activity (MGC-803 [26]): 29.1%
Activity (MGC-803 [27]): 40.3%
Activity (MGC-803 [28]): 16.1%
Activity (MGC-803 [29]): 14.8%
Activity (MGC-803 [30]): Active
Activity (MGC-803 [31]): Active
Activity (MGC-803 [32]): Dose-dependent effect

Reference: ChEMBL document CHEMBL4229547, “Design, synthesis and biological mechanisms research on 1,2,3-triazole derivatives of Jiyuan Oridonin A” (Bioorg Med Chem, 2018)
